Assay results as given in patent publication US6759238B1, “Multidrug resistance associated proteins and uses thereof” (priority 1999, dated 2004).
“And” between values parts separate entries of the source, which are not always exact repeats. Equal values may be shown once. Read-outs that look alike come from different tables or passages of the source.

Assays:
[1] = test system: HIV-1IIIB in CEM-r1 cells; assay: Antiviral activity (ED50, RT / p24 assay) in resistant cells; assay type: cell-based; conditions: Human immunodeficiency virus 1; CEM-r1 cells, HIV
Excerpt: (§1) As used herein, “pM” means picomolar, “nM” means nanmolar, “μM, means micromolar, “mM” means millimolar, “ul” or “μl” mean microliter, “ml” means milliliter, “l” means liter. […] “IC50” means the inhibitory concentration at which growth is arrested by 50 percent.
(§2) The two cell lines, CEM-SS and CEM-r1 were infected with HIV-IMB at a multiplicity of 0.01, and cultured for 6 days in the presence and absence of different concentrations of test drugs. The extent of virus production was monitored by in in-house p24 antigen capture assay (50).
The antiviral effects of the different drugs were monitored by RT assays according to previously described procedures (20, 21). CEM-SS or CEM-r1 cells were infected with an inoculum of HIV-1IIIB standardized to contain 1 RT cpm/cell, and the virus-infected cells were seeded at a concentration of 0.2×10^6 cells/ml in medium containing varying concentrations of PMEA (or other test compounds). After 5 days of incubation, the RT activity of the culture supernates was determined by previously described procedures (22). […] The reaction was initiated by addition of 10 ul of virus-containing tissue culture supernatant. After 1 hr of incubation, 10 ul of the reaction mixture were spotted on a Whatman DE-81 tilter paper, air dried, and washed four times with 2×standard saline citrate (0.3 M NaCl, 0.03 M sodium citrate). The filter papers were dried, transferred to a plastic bag containing scintillation cocktail, sealed, and counted in an LKB Betaplate reader. The drug concentrations yielding half-maximal RT activity (ED50) was calculated as a measure of the antiviral efficacy of the test compounds, using the nonlinear curve-fitting software Enzfitter (Elsevier Biosoft, Cambridge, UK).

[2] = test system: HIV-1IIIB in CEM-SS cells; assay: Antiviral activity (ED50, RT / p24 assay) in wild type cells; assay type: cell-based; conditions: Human immunodeficiency virus 1, WT (CEM-SS) cells
Excerpt: as §1, §2
The antiviral effects of the different drugs were monitored by RT assays according to previously described procedures (20, 21). […] After 5 days of incubation, the RT activity of the culture supernates was determined by previously described procedures (22). […] The filter papers were dried, transferred to a plastic bag containing scintillation cocktail, sealed, and counted in an LKB Betaplate reader. The drug concentrations yielding half-maximal RT activity (ED50) was calculated as a measure of the antiviral efficacy of the test compounds, using the nonlinear curve-fitting software Enzfitter (Elsevier Biosoft, Cambridge, UK).

CEM-SS cells [3] = assay: Cytotoxicity assay (growth inhibition, Coulter counter); conditions: Homo sapiens, CEM-SS, 24 h, read-out: Drug sensitivity (concentration to inhibit 50% growth)
Method: (§3) […] Each result is the mean of one representative experiment performed in duplicate. The cultures with the purine nucleosides adenosine, 2′-deoxyadenosine, and arabinosyladenine contained 5 μM deoxycoformycin to inhibit adenosine deaminase activity.
(§4) All assays were performed in 24-well tissue culture plates (Costar, Cambridge, Ma.). […] At the end of the incubation, the cell concentrations, sizes, and volumes were counted in a Coulter counter (Coulter Electronics, Hialeah. Fla.).

[4] = as above; conditions: human, CEM-SS cells (wild type, parental)
Method: as §3, §4

[5] = Efflux of [3H]-AZT and its metabolites; assay type: in vitro ADME, human; conditions: human
Method: (§5) Cells were incubated for 60 minutes with [^3H]-AZT (10 μM) after which they were washed free of radioactivity, resuspended in drug-free medium and the intracellular and the extracellular concentration of [^3H]-AZT were measured. […] At least 80% of the AZTMP present intracellularly in CEM-r1 cells was excreted into the medium in 10 minutes (FIG. 6A).
(§6) Referring to Table 6 in greater detail, efflux kinetics were studied. Transport analysis of PMEA was conducted as previously described^48. […] The cells were then washed free of radioactivity and then incubated in drug-free medium in the presence of sodium azide and 2-deoxy-D-glucose. At various time periods, the amount of intracellular AZTMP was measured. As reported in Table 6, depletion of ATP led to an inhibition of AZTMP efflux (i.e. a significant accumulation of AZTMP in the CEM-r1 cells but not in the CEM-SS cells).
(§7) The suspension was centrifuged at 3,300 rpm for 7 minutes. All but 1 ml of the supernatant medium containing the free drug was aspirated. […] The cell pellet was then washed with ice-cold medium and resuspended at the same concentration in drug-free medium and maintained at 37° C. […] An aliquot of the top layer (cell free media) was analyzed for the quantitation of AZT and its metabolites.

[6] = Efflux of [3H]-AZT and its metabolites; assay type: in vitro ADME, human; design: half-life: dose or concentration left out as unconfirmed; conditions: human
Method: as §5, §6, §7

CEM-r1 cells [7] = assay: Phosphorylation of AZT; assay type: in vitro ADME, human; conditions: for Intracellular Concentration / Extracellular Concentration: CEM-r1, 10 μM AZT
Method: (§8) The appearance of the phosphorylated metabolites into the medium was also determined in both the cell lines. AZTDP and AZTTP were not detected in the medium of either CEM-SS or CEM-r1 cells. However, the amount of AZTMP accumulated in the media was approximately 3-fold higher in CEM-r1 cells than in CEM-SS cells.
(§9) The cartridges were conditioned with 10% MeOH Ammonium Phosphate Buffer (5 mM, pH 4.0). The sample was loaded onto the column. […] AZTDP and AZTTP were eluted with 10% MeOH Ammonium Phosphate Buffer (700 mm, pH 4.6).

CEM-SS cells [8] = assay: Phosphorylation of AZT; assay type: in vitro ADME, human; conditions: 10 μM AZT
Method: as §8, §9

CEM-r1 cells [9] = assay: Cytotoxicity assay (growth inhibition, Coulter counter); conditions: Homo sapiens, 24 h, read-out: Drug sensitivity (concentration to inhibit 50% growth)
Method: (§10) Selection for PMEA resistance was carried out by exposing CEM-SS cells in culture to increasing concentrations of PMEA, over several months.
(§11) The IC50 values were obtained after 2 days of culture. Each result is the mean of one representative experiment performed in duplicate. The cultures with the purine nucleosides adenosine, 2′-deoxyadenosine, and arabinosyladenine contained 5 μM deoxycoformycin to inhibit adenosine deaminase activity.
as §4

[10] = as above; conditions: human
Method: as §10, §11, §4

CEM-SS and CEM-r1 cells = assay: Uptake of [3H]-AZT; assay type: in vitro ADME, human; conditions: 10 μM and 100 μM, up to 120 seconds
Method: At various time periods (0, 10, 20, 30, 40, 60, 90, 120 seconds) from the start of the incubation, aliquots of the cell suspension were removed and centrifuged through Nyosil 50 (W. F. Nye, Inc.,New Bedford, Ma.) at 14,000×g for 60 seconds at 4° C.

[11] = test system: AZTMP efflux in CEM-SS cells; assay: Effect of inhibitors of ATP-coupled transporters on AZTMP efflux; assay type: cell-based, human; conditions: PGA1 50 μM, DPM 10 μM
Method: (§12) The suspension was centrifuged at 3,300 rpm for 7 minutes. All but 1 ml of the supernatant medium containing the free drug was aspirated. […] The cell pellet was then washed with ice-cold medium and resuspended at the same concentration in drug-free medium and maintained at 37° C.

[12] = test system: AZTMP efflux in CEM-r1 cells; assay: as above; assay type: cell-based, human; conditions: PGA1 50 μM, DPM 10 μM
Method: as §12

CEM-r1 cells [13] = assay: Efflux of [3H]-AZT and its metabolites; assay type: in vitro ADME, human
Method: as §5, §6, §7

CEM-SS cells [14] = assay: Efflux of [3H]-AZT and its metabolites; assay type: in vitro ADME, human; design: half-life: dose or concentration left out as unconfirmed; conditions: CEMss, no treatment, after loading with [3H]-AZT
Method: as §5, §6, §7

With `Cc1cn([C@H]2C[C@H](N=[N+]=[N-])[C@@H](CO)O2)c(=O)[nH]c1=O` [AZT, zidovudine] the EC50 [1] was 140 nM, the EC50 [2] was 6 nM and the IC50 (CEM-SS cells [3]) was 500 µM. The IC50 at 48 h [4] was 500 µM, the half-life at 10 μM ([5]; t½ for intracellular AZT, CEM-r1) was 6.5 min and the half-life at 10 μM ([6]; t½ for intracellular AZT, CEM-SS) was 8.1 min. For the same molecule, the “Intracellular Concentration” value (CEM-r1 cells [7]; 8 hours) was 5.2 µM, the “Intracellular Concentration” value (CEM-r1 cells [7]; 24 hours) was 4.3 µM and the “Intracellular Concentration” value (CEM-SS cells [8]; 4 hours) was 10 µM. For the same molecule, the “Intracellular Concentration” value (CEM-SS cells [8]; 8 hours) was 8 µM, the “Intracellular Concentration” value (CEM-SS cells [8]; 24 hours) was 10 µM and the IC50 (CEM-r1 cells [9]) was 3 mM. For the same molecule, the IC50 at 48 h [10] was 3 mM and the “Cellular uptake in the two cell lines” value (CEM-SS and CEM-r1 cells) was “similar”.

With `CCCCC[C@H](O)/C=C/[C@H]1C=CC(=O)[C@@H]1CCCCCCC(=O)O` [PGA1, prostaglandin A1] the “Effect on efflux of AZTMP” value [11] was “no effect” and the “Effect on efflux of AZTMP” value [12] was “markedly inhibited”.

With `Cc1cn([C@H]2C[C@H](N=[N+]=[N-])[C@@H](COP(=O)(O)O)O2)c(=O)[nH]c1=O` [AZTMP, azido-thymidine monophosphate] the “Intracellular AZTMP excreted into the medium” value (CEM-r1 cells [13]; CEM-r1, in 10 minutes) was “At least 80%”, the “Efflux kinetics, AZTMP t½” value (CEM-r1 cells [13]; CEMr-1, no treatment, after loading with [3H]-AZT) was 4 min and 4.3 min and the half-life at 10 μM ([5]; CEMr-1, Azide + Deoxyglucose, read-out: Efflux kinetics, AZTMP t½) was 18.1 min. The half-life at 10 μM ([5]; CEMr-1, no treatment, after loading with [3H]-AZT, read-out: Efflux kinetics, AZTMP t½) was 4.5 min, the “Efflux kinetics, AZTMP t½” value (CEM-SS cells [14]) was 17.1 min and the half-life at 10 μM ([6]; CEMss, Azide + Deoxyglucose, read-out: Efflux kinetics, AZTMP t½) was 16.3 min. The half-life ([6]; CEMss, no treatment, after loading with [3H]-AZT, read-out: Efflux kinetics, AZTMP t½) was 17.5 min, the “Amount accumulated in the media, CEM-r1 vs CEM-SS” value (CEM-r1 cells [7]; 10 μM AZT) was “approximately 3 fold” and the “Extracellular Concentration” value (CEM-r1 cells [7]; 4 hours) was 132 nM. For the same molecule, the “Intracellular Concentration” value (CEM-r1 cells [7]; 4 hours) was 13.6 µM, the “Extracellular Concentration” value (CEM-r1 cells [7]; 8 hours) was 420 nM and the “Intracellular Concentration” value (CEM-r1 cells [7]; 8 hours) was 15.9 µM. The “Extracellular Concentration” value (CEM-r1 cells [7]; 24 hours) was 1716 nM, the “Intracellular Concentration” value (CEM-r1 cells [7]; 24 hours) was 12.3 µM and the “Extracellular Concentration” value (CEM-SS cells [8]; 4 hours) was 46 nM. The “Intracellular Concentration” value (CEM-SS cells [8]; 4 hours) was 89 µM, the “Extracellular Concentration” value (CEM-SS cells [8]; 8 hours) was 151 nM and the “Intracellular Concentration” value (CEM-SS cells [8]; 8 hours) was 95 µM. For the same molecule, the “Extracellular Concentration” value (CEM-SS cells [8]; 24 hours) was 555 nM and the “Intracellular Concentration” value (CEM-SS cells [8]; 24 hours) was 50 µM.
